Values joined by “and” are separate entries in the source; they are usually repeats but may differ in a detail not shown here. Equal entries are not always repeated. Where two headings read alike, the source gives them in different places.
Assays:
Herpes virus [1] = test: Herpes virus in chicken eggs, single dose 24 hours pre-infection; assay type: in vivo, chick embryo
Influenza PR 8 virus [2] = test: Influenza PR 8 in mice, oral; schedule by table; late read day 6 (Table 37), 7 (33, 36), 8 (32, 35, 47), 10 (38); control fraction 18/20 (Table 32), 19/20 (Table 35), else 100%; assay type: in vivo, mouse
Influenza PR 8 virus [3] = test: Influenza PR 8 in mice, subcutaneous; late read day 6 (Table 37), 8 (Table 47); assay type: in vivo, mouse
Influenza PR 8 virus [4] = test: Influenza PR 8 in mice, intravenous (Table 31); assay type: in vivo, mouse; conditions: total dose .2 μg
Influenza PR 8 virus [5] = test: Influenza PR 8 in mice, drug in drinking water (Table 34); assay type: in vivo, mouse
Columbia SK Polio virus = assay type: in vivo, mouse
Vaccinia IHD virus = assay type: in vivo, mouse
Vaccinia virus = assay type: in vivo, rabbit; conditions: rabbit, in vivo; thiosemicarbazone
Herpes virus [6] = test system: Herpes virus
viral infections = test: Antiviral screening in animals, general statements; conditions: mouse, in vivo
[7] = total dose .000005 μg, thiosemicarbazone
[8] = total dose .00005 μg, listed as 2-butanone thiosemicarbazone
[9] = total dose .00005 μg, thiosemicarbazone

CCC(C)=NNC(N)=S [2-Butanone, thiosemicarbazone, 2-butanone, thiosemicarbazone]
variable: effect on pox formation (Vaccinia virus)
12: Total deaths, 4th day (Herpes virus [1]; .5 μg) | Total no. living longer than controls (Herpes virus [1]; all doses)
5: Deaths on day 2 (Herpes virus [1]; 2 μg) | Deaths on day 2 (Herpes virus [1]; 20 μg) | Deaths on day 3 (Herpes virus [1]; .00005 μg) | Deaths on day 2 (Herpes virus [1]; .0005 μg) | Total no. hatched (Herpes virus [1]; all doses) | No. animals surviving after 6-10 days (Influenza PR 8 virus [2]; [8]) | No. animals surviving when 100% (or given fraction) of controls are dead (Herpes virus [6]; total dose .0005 μg)
3: Deaths on day 3 (Herpes virus [1]; 2 μg) | No. living longer than controls (Herpes virus [1]; 2 μg) | Deaths on day 3 (Herpes virus [1]; .0005 μg) | Deaths on day 4 (Herpes virus [1]; .005 μg) | Deaths on day 3 (Herpes virus [1]; .05 μg) | Deaths on day 2 (Herpes virus [1]; .5 μg)
< .05: Statistical Significance of Tail Lesions (Vaccinia IHD virus; 10 ng, day 5) | Statistical Significance of Tail Lesions (Vaccinia IHD virus; 10 ng, day 7) | Statistical Significance of Tail Lesions (Vaccinia IHD virus; 1 μg, day 7) | Statistical Significance of Tail Lesions (Vaccinia IHD virus; 10 [μg], day 7) | Statistical Significance of Tail Lesions (Vaccinia IHD virus; 10 [μg], day 8) | Statistical Significance of Tail Lesions (Vaccinia IHD virus; 10 [μg], day 11) | Statistical Significance of Tail Lesions (Vaccinia IHD virus; 10 [μg], day 12) | Statistical Significance of Tail Lesions (Vaccinia IHD virus; 10 [μg], day 14) | Statistical Significance of Tail Lesions (Vaccinia IHD virus; 100 [ng], day 5)
8 and 4: No. animals surviving after 6-10 days (Influenza PR 8 virus [2]; [9])
1: Deaths on day 1 (Herpes virus [1]; 2 μg) | No. hatched (Herpes virus [1]; 2 μg) | Deaths on day 3 (Herpes virus [1]; 20 μg) | No. dying 5-22 day (Herpes virus [1]; 20 μg) | No. hatched (Herpes virus [1]; .00005 μg) | No. living longer than controls (Herpes virus [1]; .00005 μg) | Deaths on day 1 (Herpes virus [1]; .0005 μg) | Deaths on day 4 (Herpes virus [1]; .0005 μg) | No. hatched (Herpes virus [1]; .0005 μg) | No. living longer than controls (Herpes virus [1]; .005 μg) | No. dying 5-22 day (Herpes virus [1]; .05 μg) | No. living longer than controls (Herpes virus [1]; .05 μg) | Deaths on day 1 (Herpes virus [1]; .5 μg) | Survivors (Influenza PR 8 virus [2]; [7]) | No. animals surviving when 100% (or given fraction) of controls are dead (Influenza PR 8 virus [2]; total dose .0005 μg) | Survivors (Influenza PR 8 virus [2]; total dose .0005 μg) | No. animals surviving when 100% (or given fraction) of controls are dead (Influenza PR 8 virus [2]; total dose .005 μg) | Survivors (Influenza PR 8 virus [2]; total dose .005 μg) | No. animals surviving after 6-8 days (Influenza PR 8 virus [3]; total dose .0005 μg) | Survivors (Influenza PR 8 virus [3]; total dose .0005 μg) | Survivors (Influenza PR 8 virus [5]; 0.5 Mg/ml in water, 24 h pre and 24 h post) | Survivors (Columbia SK Polio virus; total dose 300 ng) | No. animals surviving after 6-9 days (Herpes virus [6]; total dose .000005 μg)
< .01: Statistical Significance of Tail Lesions (Vaccinia IHD virus; 10 ng, day 6) | Statistical Significance of Tail Lesions (Vaccinia IHD virus; 10 ng, day 10) | Statistical Significance of Tail Lesions (Vaccinia IHD virus; 10 ng, day 11) | Statistical Significance of Tail Lesions (Vaccinia IHD virus; 10 ng, day 12) | Statistical Significance of Tail Lesions (Vaccinia IHD virus; 10 ng, day 14) | Statistical Significance of Tail Lesions (Vaccinia IHD virus; 10 ng, day 17) | Statistical Significance of Tail Lesions (Vaccinia IHD virus; 10 ng, day 21) | Statistical Significance of Tail Lesions (Vaccinia IHD virus; 1 μg, day 5) | Statistical Significance of Tail Lesions (Vaccinia IHD virus; 1 μg, day 6) | Statistical Significance of Tail Lesions (Vaccinia IHD virus; 1 μg, day 8) | Statistical Significance of Tail Lesions (Vaccinia IHD virus; 1 μg, day 10) | Statistical Significance of Tail Lesions (Vaccinia IHD virus; 1 μg, day 11) | Statistical Significance of Tail Lesions (Vaccinia IHD virus; 1 μg, day 12) | Statistical Significance of Tail Lesions (Vaccinia IHD virus; 1 μg, day 14) | Statistical Significance of Tail Lesions (Vaccinia IHD virus; 1 μg, day 17) | Statistical Significance of Tail Lesions (Vaccinia IHD virus; 1 μg, day 21) | Statistical Significance of Tail Lesions (Vaccinia IHD virus; 10 [μg], day 6) | Statistical Significance of Tail Lesions (Vaccinia IHD virus; 10 [μg], day 10) | Statistical Significance of Tail Lesions (Vaccinia IHD virus; 10 [μg], day 17) | Statistical Significance of Tail Lesions (Vaccinia IHD virus; 10 [μg], day 21) | Statistical Significance of Tail Lesions (Vaccinia IHD virus; 100 [ng], day 6) | Statistical Significance of Tail Lesions (Vaccinia IHD virus; 100 [ng], day 7) | Statistical Significance of Tail Lesions (Vaccinia IHD virus; 100 [ng], day 8) | Statistical Significance of Tail Lesions (Vaccinia IHD virus; 100 [ng], day 10) | Statistical Significance of Tail Lesions (Vaccinia IHD virus; 100 [ng], day 11) | Statistical Significance of Tail Lesions (Vaccinia IHD virus; 100 [ng], day 12) | Statistical Significance of Tail Lesions (Vaccinia IHD virus; 100 [ng], day 14) | Statistical Significance of Tail Lesions (Vaccinia IHD virus; 100 [ng], day 17) | Statistical Significance of Tail Lesions (Vaccinia IHD virus; 100 [ng], day 21)
7: No. animals surviving after 5 days (Columbia SK Polio virus; total dose 3 ng)
9: Total deaths, 4th day (Herpes virus [1]; 2 μg)
0: No. dying 5-22 day (Herpes virus [1]; .00005 μg) | No. dying 5-22 day (Herpes virus [1]; .0005 μg) | No. dying 5-22 day (Herpes virus [1]; .005 μg) | No. dying 5-22 day (Herpes virus [1]; .5 μg) | No. living longer than controls (Herpes virus [1]; .5 μg) | Survivors (Influenza PR 8 virus [2]; total dose .000005 μg) | Survivors (Influenza PR 8 virus [2]; total dose .005 μg, thiosemicarbazone) | Survivors (Influenza PR 8 virus [3]; total dose .000005 μg) | Survivors (Influenza PR 8 virus [3]; total dose .00005 μg) | Survivors (Influenza PR 8 virus [3]; total dose .005 μg) | Survivors (Influenza PR 8 virus [5]; 24 h post-infection only, first of two printed columns) | Survivors (Columbia SK Polio virus; total dose 3 ng) | Survivors (Columbia SK Polio virus; total dose 30 ng) | No. animals surviving when 100% (or given fraction) of controls are dead (Herpes virus [6]; total dose .000005 μg) | Survivors (Herpes virus [6]; total dose .000005 μg) | No. animals surviving when 100% (or given fraction) of controls are dead (Herpes virus [6]; total dose .05 μg) | Survivors (Herpes virus [6]; total dose .05 μg)
4: No. living longer than controls (Herpes virus [1]; 20 μg) | Deaths on day 2 (Herpes virus [1]; .00005 μg) | Deaths on day 2 (Herpes virus [1]; .005 μg) | No. animals surviving after 6-10 days (Influenza PR 8 virus [2]; [7]) | Survivors (Influenza PR 8 virus [2]; total dose .00005 μg) | No. animals surviving when 100% (or given fraction) of controls are dead (Influenza PR 8 virus [2]; [9]) | No. animals surviving when 100% (or given fraction) of controls are dead (Herpes virus [6]; total dose .00005 μg) | Survivors (Herpes virus [6]; total dose .0005 μg) | No. animals surviving after 6-9 days (Herpes virus [6]; total dose .005 μg)
one of the most active compounds: activity in words (viral infections)
10: Total deaths, 4th day (Herpes virus [1]; .0005 μg)
11: Total deaths, 4th day (Herpes virus [1]; .00005 μg) | Total deaths, 4th day (Herpes virus [1]; .005 μg) | Total deaths, 4th day (Herpes virus [1]; .05 μg)
2: No. dying 5-22 day (Herpes virus [1]; 2 μg) | Deaths on day 4 (Herpes virus [1]; 20 μg) | Deaths on day 1 (Herpes virus [1]; .00005 μg) | No. living longer than controls (Herpes virus [1]; .0005 μg) | Deaths on day 1 (Herpes virus [1]; .005 μg) | Deaths on day 3 (Herpes virus [1]; .005 μg) | Deaths on day 1 (Herpes virus [1]; .05 μg) | Deaths on day 4 (Herpes virus [1]; .5 μg) | No. animals surviving when 100% (or given fraction) of controls are dead (Influenza PR 8 virus [2]; [7]) | Survivors (Influenza PR 8 virus [2]; [8]) | No. animals surviving after 6-10 days (Influenza PR 8 virus [2]; total dose .0005 μg) | No. animals surviving after 6-10 days (Influenza PR 8 virus [2]; total dose .005 μg) | No. animals surviving after 6-8 days (Influenza PR 8 virus [3]; total dose .000005 μg) | No. animals surviving when 18/20 of controls are dead (Influenza PR 8 virus [4]) | Survivors (Influenza PR 8 virus [4]) | Survivors (Influenza PR 8 virus [5]; 10 Mg/ml in water, 24 h pre and 24 h post) | Survivors (Herpes virus [6]; mouse, in vivo)
8: Total deaths, 4th day (Herpes virus [1]; 20 μg) | No. animals surviving after 5 days (Columbia SK Polio virus; total dose 30 ng) | No. animals surviving after 6-9 days (Herpes virus [6]; total dose .00005 μg)
most active of the compounds tested: activity in words (Vaccinia IHD virus; mouse, in vivo)
6: Deaths on day 2 (Herpes virus [1]; .05 μg) | Deaths on day 3 (Herpes virus [1]; .5 μg) | No. animals surviving after 6-10 days (Influenza PR 8 virus [2]; total dose .000005 μg) | No. animals surviving after 5 days (Columbia SK Polio virus; total dose 300 ng) | No. animals surviving after 6-9 days (Herpes virus [6]; total dose .0005 μg)
